# Experimental data as given in publication PMC9552147 (Nature Communications, 2022).
# “And” between values parts separate entries of the source, which are not always exact repeats. Identical values can stand only once. Like-named read-outs stand apart in the source and are kept apart here.
# How the values were obtained:
# [1] = test system: COX1 production (mitochondrial ribosomes) in HepG2 cells; test: cells; settings: Homo sapiens
# Protocol: (§1) Cells were trypsinized in 0.05% trypsin-EDTA (Gibco) and re-suspended in 10 mL growth medium. Cells were filtered through a 40 µm filter and seeded in collagen-coated 96-well plates (Life technologies #A11428-03) at 3500 cells/well in a volume of 170 µL/well with plates agitated upon cell addition to ensure even distribution. […] The plates were incubated an additional 72 h after which the medium was gently aspirated and replaced with 4% paraformaldehyde (100 µL/well) prepared in Dulbecco’s PBS. After 20 min fixation, the medium was removed, and wells washed three times with 200 µL/well PBS. Wells were treated for 5 min with 0.5% acetic acid (100 μL/well), wells were washed with 200 μL/well PBS and subsequently treated with permeabilization buffer (0.1 % Triton X-100) (100 μL/well) for 30 min. Buffer was removed and replaced with 2× blocking buffer from the ab110217 MitoBiogenesis™ In-Cell ELISA Kit (Abcam). After 2 h incubation, primary antibody was added (100 μl/well) in 1× blocking buffer per manufacturer’s recommendation except for the background control wells which received 100 μl/well 1× blocking buffer only. […] Alkaline phosphatase/horse radish peroxidase-labeled secondary antibody solution prepared according to the manufacturer’s instructions in 1× blocking buffer was added at 100 μl/well to all wells. After 1 h incubation, wells were washed 4 times with wash buffer (200 μl/well) followed by addition of 100 μl/well freshly prepared per manufacturer’s recommendation alkaline peroxidase development solution. […] The reagent was removed, and 100 μl/well horse radish peroxidase development solution added. […] The development solution was completely removed, and plates blotted to dryness after which 1× Janus green stain (50 μl/well) was added. […] Data was interpreted per manufacturer’s instructions and plotted in GraphPad Prism to calculate IC20 and IC50 values for Cox-I/SDHA and cell viability.
# [2] = test system: HepG2 cells; test: cells; settings: Homo sapiens
# [3] = test system: HepG2 cells; test: cells; assay type: cell-based; settings: Homo sapiens
# Protocol: as §1
# [4] = test system: COX1 production (mitochondrial ribosomes) in HepG2 cells; settings: for COX1 production: human; for IC50: read-out: Cox IC50
# Protocol: as §1
# [5] = test system: M. tuberculosis H37Rv:luc within THP1 monocytes; test: microbe, parasite or virus in culture; assay type: cell-based; settings: Mycobacterium tuberculosis
# [6] = test system: HepG2 cells
# [7] = test system: SDHA production (cytoplasmic ribosomes) in HepG2 cells
# Protocol: as §1
# [8] = in vitro; settings: human, HepG2 IC50 (cytotoxicity)
# [9] = test system: M. tuberculosis H37Rv; test: microbe, parasite or virus in culture; assay type: cell-based, Mycobacterium tuberculosis; settings: for MIC: Mycobacterium tuberculosis, H37RV
# [10] = test system: SDHA production (cytoplasmic ribosomes) in HepG2 cells; test: cells; settings: Homo sapiens
# Protocol: as §1
# [11] = test system: lysine biosynthetic pathway metabolites in M. tuberculosis; assay type: cell-based, Mycobacterium tuberculosis
# [12] = test system: M. tuberculosis H37Rv
# [13] = test system: M. tuberculosis H37Rv; assay type: cell-based, Mycobacterium tuberculosis; parameters: MIC, No Lysine / MIC, No Lysine, Ave: unit not given beside the values
# [14] = test system: M. tuberculosis H37Rv; parameters: species or system C57BL/6 mice; settings: in vivo, 30 mg/kg
# [15] = test system: M. tuberculosis; parameters: species or system C57BL/6 mice; settings: in vivo, 100 mg/kg
# [16] = test system: M. tuberculosis H37Rv; parameters: species or system BALB/c mice; settings: in vivo
structure (smiles),measurement,setting,value
Nc1cc2c(c(F)n1)C(=O)N(C1CCCCC1)C2 [Compound 2],IC50,"[1]; HepG2, read-out: Cox IC50",2.67 µM
same,IC50,"[1]; HepG2, read-out: Cox IC50, Ave",3.6 µM
same,IC50,"[2]; HepG2, read-out: IC50 (µM), Geo Mean",10.7 µM
same,IC50,"[2]; HepG2, read-out: IC50 (µM), Mean",11.8 µM
same,IC50,"[3]; HepG2, read-out: JG IC50, Ave",3.3 µM
same,COX1 production,[4],blocked expression of both COX1 and SDHA
same,IC50,[4],3.54 µM and 4.59 µM and 3.47 µM
same,MIC,[5],0.71 µM
same,IC50,[6],7.94 µM
same,SDHA production,[7]; human,blocked expression of both COX1 and SDHA
same,IC50,[7]; read-out: SDH-A IC50,2.89 µM and 3.53 µM and 3.87 µM
same,IC50,[8],11 µM
same,WT MIC,[9],0.74 µM
same,MIC,"[9]; read-out: MIC (µM), single replicate",0.6 µM
same,MIC,"[9]; read-out: MIC, Geo Mean",0.6 µM
same,MIC,"[9]; read-out: MIC, Mean",0.6 µM
same,MIC,"[9]; read-out: MIC, Median",0.6 µM
same,MIC,[9]; read-out: WT MIC,0.89 µM
same,MIC,"[9]; read-out: WT MIC, Ave",0.82 µM
same,IC50,"[10]; HepG2, read-out: SDH-A IC50",3.04 µM
same,IC50,"[10]; HepG2, read-out: SDH-A IC50, Ave",3.3 µM
Nc1ncc2c(n1)CC(C1CCC1)C2=O (centres unmarked) [Compound 9],"Acetyl-amino-oxopimelate, Raw data",[11],6696.89 and 6125.64 and 5614.65
same,"Acetyl-aminoadipate, Raw data",[11],373220.66 and 356398.25 and 363487.19
same,"Acetyl-diaminopimelate, Raw data",[11],268291.72 and 294087.29 and 265596.05
same,"Allysine, Raw data",[11],6339.98 and 6256.07 and 3388.68
same,"Amino-oxoheptanedioate, Raw data",[11],67628.76 and 66386.61 and 73890.51
same,"Aminoadipate, Raw data",[11],230713.39 and 278620.19 and 273252.31
same,"Glutamic acid, Raw data",[11],95052793.71 and 89933952.73 and 93441271.33
same,"Lysine or Methylornithine, Raw data",[11],376867.18 and 321105.18 and 351101.87
same,"Saccharopine, Raw data",[11],4344892.84 and 4372904.79 and 3935929.36
same,"Succinyl-diaminopimelate, Raw data",[11],61950.05 and 84823.10 and 63130.16
same,"diaminopimelate, Raw data",[11],182757.00 and 205469.42 and 201059.38
"CC(=O)NC[C@H]1CN(c2ccc(N3CCOCC3)c(F)c2)C(=O)O1 [Linezolid, linezolid]","CFU/ml, Day 0",[12],103000 CFU/ml
same,"CFU/ml, Day 2",[12],400000 CFU/ml and 600000 CFU/ml
same,"CFU/ml, Day 4",[12],140000 CFU/ml and 70000 CFU/ml
same,"CFU/ml, Day 7",[12],70000 CFU/ml and 53000 CFU/ml
same,"CFU/ml, Day 14",[12],8600 CFU/ml and 7100 CFU/ml
same,IC50,"[3]; HepG2, read-out: JG IC50",> 100 µM
same,COX1 production,[4],selective inhibition of COX1 production
same,IC50,"[10]; HepG2, read-out: SDH-A IC50",> 100 µM
COc1c(N2C[C@@H]3CCCN[C@@H]3C2)c(F)cc2c(=O)c(C(=O)O)cn(C3CC3)c12 [Moxifloxacin],"MIC, +1mM Lysine",[13],2.04 and 3.47
same,"MIC, +1mM Lysine, Ave",[13],2.75
same,"MIC, No Lysine",[13],1.02 and 1.45
same,"MIC, No Lysine, Ave",[13],1.23
same,logCFUs per mouse (lungs),[14],3.2 logCFUs per mouse and 3.3 logCFUs per mouse (2×) and 2.4 logCFUs per mouse and 2.9 logCFUs per mouse and 3.5 logCFUs per mouse and 3.8 logCFUs per mouse (2×) and 2.6 logCFUs per mouse
same,"logCFUs per mouse (lungs), Mean",[14],3 logCFUs per mouse and 3.4 logCFUs per mouse
same,logCFUs per mouse (lungs),[15],2.5 logCFUs per mouse (2×) and 2.3 logCFUs per mouse and 1.9 logCFUs per mouse and 2.2 logCFUs per mouse
same,"logCFUs per mouse (lungs), Mean",[15],2.3 logCFUs per mouse
"O=[N+]([O-])c1cn2c(n1)OC[C@@H](OCc1ccc(OC(F)(F)F)cc1)C2 [Pa, pretomanid]",logCFUs per mouse (lungs),[16],4.68 logCFUs per mouse and 4.53 logCFUs per mouse and 4.19 logCFUs per mouse and 4.48 logCFUs per mouse and 4.10 logCFUs per mouse
same,"logCFUs per mouse (lungs), Mean",[16],4.4 logCFUs per mouse
same,change in lung CFU over the treatment period,[16]; mouse,significant decrease in CFU
"CO[C@H]1/C=C/O[C@@]2(C)Oc3c(C)c(O)c4c(O)c(c(/C=N/N5CCN(C)CC5)c(O)c4c3C2=O)NC(=O)/C(C)=C\C=C\[C@H](C)[C@H](O)[C@@H](C)[C@@H](O)[C@@H](C)[C@H](OC(C)=O)[C@@H]1C [Rifampicin, rifampicin]","CFU/ml, Day 0",[12],103000 CFU/ml
same,"CFU/ml, Day 2",[12],270000 CFU/ml and 190000 CFU/ml
same,"CFU/ml, Day 7",[12],5000 CFU/ml and 5100 CFU/ml
same,"CFU/ml, Day 14",[12],440 CFU/ml and 430 CFU/ml
O=C(N[C@H](CO)[C@H](O)c1ccc([N+](=O)[O-])cc1)C(Cl)Cl [chloramphenicol],IC50,"[1]; HepG2, read-out: Cox IC50",5.11 µM
same,IC50,"[1]; HepG2, read-out: Cox IC50, Ave",4.6 µM
same,IC50,"[3]; HepG2, read-out: JG IC50",> 100 µM
same,COX1 production,[4],selective inhibition of COX1 production
same,IC50,[4],4.44 µM and 3.97 µM and 4.95 µM
same,IC50,"[10]; HepG2, read-out: SDH-A IC50",> 100 µM
NNC(=O)c1ccncc1 [isoniazid],"MIC, +1mM Lysine",[13],2.82 and 2.63
same,"MIC, +1mM Lysine, Ave",[13],2.72
same,"MIC, No Lysine",[13],3.02 and 3.39
same,"MIC, No Lysine, Ave",[13],3.20
